The viability is a read-out of living cells in per cent, often relative to untreated cells. As usually defined, the EC50 is the midpoint of the concentration-response curve.

The subject of series [1] is reactive oxygen species (ROS). Put plainly: ROS production (H2DCFDA) in infected RAW 264.7 macrophages. It is filed as cell-based, murine. Conditions: RAW 264.7 macrophages infected with L. (V.) braziliensis. As to the method:
To quantify the levels of ROS generated by L. (V.) braziliensis-infected RAW 264.7 macrophages, the following procedure was employed: RAW 264.7 macrophages (1 × 10^5 cells per well) were added to a 96-well plate, with each well containing 100 μL of supplemented DMEM medium. These cells were allowed to incubate for 3 h at 37 °C with 5% CO2 to promote cell adhesion. Subsequently, the macrophages were infected with L. (V.) braziliensis at a ratio of 10:1 (promastigotes to macrophages) and incubated for 4 h. After the infection period, the cells were plated and incubated with various concentrations of test substances, ranging from 3.12 to 25 μmol/L. This incubation was carried out at 37 °C with 5% CO2 for duration of 72 h. Following the incubation period, 10 µL of H2DCFDA dye was added to each well, resulting in a final concentration of 20 µmol/L. The cells were then incubated at 37 °C in the dark for 30 min. The fluorescent intensity was measured using a fluorescence plate reader (FLx800) at an excitation wavelength of 485 nm and an emission wavelength of 528 nm. The fold change in ROS levels was calculated by comparing the results to a normal control.

For the next series, the system named is nitric oxide (NO). Put plainly: Nitric oxide synthesis induction (Griess) in infected macrophages. In kind it is cell-based, murine. The note with it: supernatant of RAW 264.7 macrophages infected with L. (V.) braziliensis. As to the method:
To evaluate the induction of nitric oxide (NO) synthesis, the following procedure was conducted: In 96-well plates, 100 μL of the supernatants obtained from the macrophage infection assays by L. (V.) braziliensis were placed. An equal volume of Griess® reagent (obtained from Sigma-Aldrich, St. Louis, MO, USA) was added to each well. In parallel, the same procedure was carried out using known concentrations of sodium nitrite (NaNO2, obtained from Vertec Química Fina, Duque de Caxias, RJ, Brazil) ranging from 125 to 2 μmol/L, which were prepared in RPMI medium. This was performedto generate a standard curve. The plates were then incubated at room temperature for 10 min. Subsequently, the absorbance of the samples was measured in a plate reader at a wavelength of 545 nm. The concentration of nitrite in the supernatants was determined by interpolating the absorbance values onto the standard curve.
A general note: Griess reagent forms a coloured azo dye with nitrite.

A short description of series [2]: Cell toxicity, MTT-based EZ4U assay, A549. Conditions: human, A549 cells (alveolar basal epithelial adenocarcinoma), 72 h; for viability at 72 h, 2.34 µmol/L: A549, 2.34 µmol/L; for viability at 72 h, 4.6875 µmol/L: A549, 4.6875 µmol/L; for viability at 72 h, 9.375 µmol/L: A549, 9.375 µmol/L; for viability at 72 h, 18.75 µmol/L: A549, 18.75 µmol/L; for viability at 72 h, 37.5 µmol/L: A549, 37.5 µmol/L; for viability at 72 h, 75 µmol/L: A549, 75 µmol/L; for viability at 72 h, 150 µmol/L: A549, 150 µmol/L; for viability at 72 h, 300 µmol/L: A549, 300 µmol/L; for viability at 72 h, 600 µmol/L: A549, 600 µmol/L. Details: species or system human. The procedure: (§1) In this study, we utilized the RAW 264.7 macrophages line (obtained from ATCC: code TIB-71™),human embryonic kidney cell line HEK-293 (obtained from ATCC: code CRL-1573™)and two human cancer cell cultures: the colon carcinoma cell line CaCo-2 and the adenocarcinomic human alveolar basal epithelial cell A549 (also obtained from ATCC: codesHTB-37™ and CCL-185™).These cell lines were cultured in Dulbecco’s modified Eagle medium (DMEM) from Gibco by Life Technologies (LifeTech Austria, Vienna, Austria). The growth medium was supplemented with 5% fetal bovine serum (FBS) from Gibco by Life Technologies and 1% penicillin-streptomycin obtained from Sigma-Aldrich (Vienna, Austria). The cells were maintained at 37 °C with 5% CO2 in a humidified incubator, and regular checks for mycoplasma contamination were carried out.
(§2) For experimental purposes, the cells were seeded into 96-well plates at a density of 2 × 10^4 cells/mL, with each well containing 100 µL of the cell suspension. The cells were allowed to adhere for 24 h. […] The stock solutions of these compounds were prepared in water with 10% (v/v) dimethyl sulfoxide (DMSO) and stored at 4 °C.
(§3) To assess cell viability after 72 h of exposure to the compounds, we employed a 3-(4,5-dimethylthiazol-2-yl)-2,5-diphenyltetrazolium bromide (MTT)-based vitality assay kit (EZ4U, Biomedica, Vienna, Austria). Briefly, we added 20 µL of the EZ4U assay solution to each well and incubated the plates in the dark for 2 h. Subsequently, we measured the absorbance using a microplate reader at 450 nm, with 620 nm as a reference to reduce unspecific background values. For reliability, all experiments were conducted three times with triplicate samples.
For orientation: Tetrazolium assays rely on reduction of a dye to a coloured formazan, in cell work by metabolically active cells.

Another series deals with A549. Put plainly: Cell toxicity, MTT-based EZ4U assay, A549. More on the design: species or system human. The note with it: A549, 1.56–500 µmol/L. The procedure: as §1, §2, §3
The subject of series [3] is L. (V.) braziliensis intramacrophage amastigotes. Put plainly: Treatment of RAW 264.7 macrophages infected with L. (V.) braziliensis (intramacrophage amastigotes). Conditions: RAW 264.7 infected with L. (V.) braziliensis, 72 h of treatment. It is filed as cell-based, Leishmania (Viannia) braziliensis. The procedure: RAW 264.7 macrophages (1 × 10^6 cells/mL) were seeded in 24-well plates containing sterile glass slides, and approximately 500 μL of supplemented DMEM medium was added. The plates were then incubated at 37 °C with 5% CO2 for 4 h to facilitate cell adhesion. Following the adhesion period, promastigotes (1 × 10^7) in the stationary growth phase were introduced into the wells for infection. The plates were then incubated for an additional 4 h to allow infection to take place. Afterward, the medium was carefully removed, and the wells were washed three times with PBS to eliminate any nonadherent cells. Fresh medium containing serial concentrations of the test substances, ranging from 0.78 to 25 μmol/L, was added to the wells. Additionally, a range of concentrations of glucantime (25 to 800 μmol/L) was included for comparison. The treatment was carried out for 72 h in an incubator at 37 °C with 5% CO2. At the end of the 72 h treatment period, the glass lamina was removed from each well and stained using rapid panoptic stain (Laborklin®, Curitiba, Paraná, Brazil). The stained samples were mounted on permanent slides using Entelan® (Sigma-Aldrich, St. Louis, MO, USA), and antileishmanial activity was assessed by measuring the infection rate and counting the number of amastigotes per macrophage. Quantification was performed using light microscopy at a magnification of 1000×, and a total of 300 macrophages per lamina were evaluated. As a negative control, half DMEM containing 0.2% DMSO was used.

[4] abbreviates: Leishmania braziliensis, RAW264.7, 72 h.

Turning to `O=C(/N=C(/NCc1ccccc1)Nc1ccc([N+](=O)[O-])cc1)c1ccccc1` [LQOF-G1, (Z)-N-benzoyl-N-benzyl-N-(4-nitrophenyl)guanidine], the ROS level entry in series [1] was “increased”. The NO level entry in the series with nitric oxide (NO) was “increased”. Moreover, in series [2], the viability at 72 h, 2.34 µmol/L worked out at 114 ± 7%; the viability at 72 h, 4.6875 µmol/L turned out to be 97 ± 10.7%; the viability at 72 h, 9.375 µmol/L came to 103 ± 8.8%; the viability at 72 h, 18.75 µmol/L came out at 103 ± 5.7%. Moreover, in series [2], the viability at 72 h, 37.5 µmol/L came to 101 ± 8.3%; the viability at 72 h, 75 µmol/L was 92 ± 9.3%; the viability at 72 h, 150 µmol/L was determined as 100 ± 6.5%; the viability at 72 h, 300 µmol/L was 110 ± 7.2%. In addition, the viability at 72 h, 600 µmol/L in series [2] was 90 ± 8.3%. In addition, the “toxic effects on cell viability” value in the series on A549 was “No toxic effects”. Moreover, the half-maximal effective concentration (EC50) in series [3] (setting [4]) amounted to 3.65 µM. This compound returned an EC50 in series [3] of 3.6 ± 0.2 µM.
For the compound `O=C(/N=C(/NCc1ccccc1)Nc1ccc(Br)cc1)c1ccccc1` [LQOF-G2, (Z)-N-benzoyl-N-benzyl-N-(4-bromophenyl)guanidine], the ROS level entry in series [1] is on record as “increased”. The NO level entry with nitric oxide (NO) is recorded as “increased”. Moreover, in series [2], the viability at 72 h, 2.34 µmol/L was found to be 106 ± 6.3%; the viability at 72 h, 4.6875 µmol/L was 109 ± 5.5%; the viability at 72 h, 9.375 µmol/L was found to be 102 ± 10.5%; the viability at 72 h, 18.75 µmol/L stood at 89 ± 5.7%. Further, in series [2], the viability at 72 h, 37.5 µmol/L turned out to be 99 ± 5.2%; the viability at 72 h, 75 µmol/L worked out at 96 ± 7.7%; the viability at 72 h, 150 µmol/L is 109 ± 4.3%; the viability at 72 h, 300 µmol/L is 111 ± 9.3%. Moreover, the viability at 72 h, 600 µmol/L in series [2] worked out at 110 ± 7.9%. Besides, the “toxic effects on cell viability” value in the series on A549 was “No toxic effects”. The compound also had a half-maximal effective concentration (EC50) in series [3] (setting [4]) of 4.21 µM. In series [3], this compound came in with an EC50 of 4.2 ± 0.5 µM.
Take `CC(C)(C)c1ccc(N/C(=N\C(=O)c2ccccc2)NCc2ccccc2)cc1` [LQOF-G6, (Z)-N-benzoyl-N-benzyl-N-(4-tert-butylphenyl)guanidine]: the ROS level entry in series [1] was “increased”. For the same compound, the NO level result in the series on nitric oxide (NO) was “increased”. Further, the figures for the EC50 in series [3] (setting [4]) and in series [3] were 3.89 µM and 3.9 ± 0.1 µM, respectively.
For the compound `O=C(/N=C(/NCc1ccccc1)Nc1ccc(I)cc1)c1ccccc1` [LQOF-G7, (Z)-N-benzoyl-N-benzyl-N-(4-iodophenyl)guanidine], the EC50 in series [3] (setting [4]) turned out to be 8.25 µM; in series [3] it was 8.2 ± 0.7 µM.
As to `O=C(/N=C(/NCc1ccc(Cl)cc1Cl)Nc1ccc(Br)cc1)c1ccccc1` [LQOF-G32, (Z)-N-benzoyl-N-(2,4-di-chlorobenzyl)-N-(4-bromophenyl)guanidine], in series [2], the viability at 72 h, 2.34 µmol/L amounted to 109 ± 9.7%; the viability at 72 h, 4.6875 µmol/L is 157 ± 10.6%; the viability at 72 h, 9.375 µmol/L amounted to 165 ± 8.1%; the viability at 72 h, 18.75 µmol/L was 121 ± 3.6%. Besides, in series [2], the viability at 72 h, 37.5 µmol/L turned out to be 118 ± 9.9%; the viability at 72 h, 75 µmol/L turned out to be 115 ± 17.5%; the viability at 72 h, 150 µmol/L is 111 ± 15.5%; the viability at 72 h, 300 µmol/L turned out to be 106 ± 13.8%. Further, the viability at 72 h, 600 µmol/L in series [2] came out at 95 ± 10.4%. Besides, the “toxic effects on cell viability” value with A549 was “No toxic effects”.

Source of the values: PMC10813298, “Evidence of Guanidines Potential against Leishmania (Viannia) braziliensis: Exploring In Vitro Effectiveness, Toxicities and of Innate Immunity Response Effects” (Biomolecules, 2023).
